In ChEMBL document CHEMBL3243925, “Disteroidyl ethers. 1. Synthesis and oral long-lasting uterotrophic activity of 1,3,5(10)-estratrien-17-yl enol ethers of 3-keto steroids” (1977) one finds Activity data, which are given here for 33 compounds.

Test [1] relates to Rattus norvegicus. The test is described as follows: Uterotrophic activity in spayed Wistar rat assessed as autopsies by measuring uterus weight at 0.1 umol, po after 2 weeks (reference value: 15.9 +/- 0.50 mg). It is filed as functional.
In test [2] the test system is Rattus norvegicus. The test is described as follows: Uterotrophic activity in spayed Wistar rat assessed as autopsies by measuring uterus weight at 0.1 umol, po after 1 week (reference value: 15.1 +/- 0.51 mg). It is filed as functional.

SMILES strings stand for the structures. Active and inactive are the calls of the source. The calls are words filed in the database; no cut-off is given here.

On to `C[C@]12CC[C@@H]3c4ccc(O)cc4CC[C@H]3[C@@H]1CC[C@@H]2OC1=CC2=CC[C@@H]3[C@H](CC[C@@]4(C)[C@H]3CC[C@]4(C)O)[C@@]2(C)CC1`, for which the results for the Activity in test [1] and in test [2] were 33.5 mg and 48.1 mg, respectively.
Taken in the same sequence, the figures for `C#C[C@]1(OC(=O)C(C)OCC)CC[C@H]2[C@@H]3CC=C4C=C(O[C@H]5CC[C@H]6[C@@H]7CCc8cc(OC(C)OCC)ccc8[C@H]7CC[C@]56C)CC[C@@H]4[C@H]3CC[C@@]21C` (stereo not given in full) were 18 mg and 23.6 mg.
Taken in the same sequence, the figures for `CCC(=O)O[C@H]1CC[C@H]2[C@@H]3CC[C@@H]4CC(O[C@H]5CC[C@H]6[C@@H]7CCc8cc(OC(=O)c9ccccc9)ccc8[C@H]7CC[C@]56C)CC[C@]4(C)[C@H]3CC[C@]12C` (stereo not given in full) were “inactive” and “inactive”.
The matching figures for `C[C@]12CC[C@@H]3c4ccc(O)cc4CC[C@H]3[C@@H]1CC[C@@H]2OC1=CC2=CC[C@@H]3[C@H](CC[C@]4(C)C(=O)CC[C@@H]34)[C@H]2CC1`: 43.6 mg and 71.7 mg.
With `C#C[C@]1(OC(=O)CCCCCC)CC[C@H]2[C@@H]3CC=C4C=C(O[C@H]5CC[C@H]6[C@@H]7CCc8cc(OC(C)=O)ccc8[C@H]7CC[C@]56C)CC[C@@H]4[C@H]3CC[C@@]21C`, the values for the Activity in test [1] and in test [2] were 28.7 mg and 31.7 mg, respectively.
The matching figures for `C#C[C@]1(OC(=O)CCCCCC)CC[C@H]2[C@@H]3CC=C4C=C(O[C@H]5CC[C@H]6[C@@H]7CCc8cc(OC)ccc8[C@H]7CC[C@]56C)CC[C@@H]4[C@H]3CC[C@@]21C`: 15.4 mg and 18.2 mg.
As for `C#C[C@]1(OC(C)=O)CC[C@H]2[C@@H]3CC=C4C=C(O[C@H]5CC[C@H]6[C@@H]7CCc8cc(OC(=O)CCC)ccc8[C@H]7CC[C@]56C)CC[C@@H]4[C@H]3CC[C@@]21C`, the Activity in test [1] is recorded as 18.3 mg; in test [2] it was 26.5 mg.
In the case of `CCC(=O)O[C@H]1CC[C@H]2[C@@H]3CC[C@@H]4C=C(O[C@H]5CC[C@H]6[C@@H]7CCc8cc(OC(=O)c9ccccc9)ccc8[C@H]7CC[C@]56C)CC[C@]4(C)[C@H]3CC[C@]12C`, the Activity in test [1] is given as 19.9 mg; in test [2], 21.2 mg.
Consider `CCC(=O)O[C@H]1CC[C@H]2[C@@H]3CC=C4C=C(O[C@H]5CC[C@H]6[C@@H]7CCc8cc(OC(=O)c9ccccc9)ccc8[C@H]7CC[C@]56C)CC[C@]4(C)[C@H]3CC[C@]12C`, for which the Activity in test [1] was found to be 31 mg; in test [2] it was 49.4 mg.
Taken in the same sequence, the figures for `C#C[C@]1(OC(C)=O)CC[C@H]2[C@@H]3CC=C4C=C(O[C@H]5CC[C@H]6[C@@H]7CC(=O)c8cc(OC(=O)c9ccccc9)ccc8[C@H]7CC[C@]56C)CC[C@@H]4[C@H]3CC[C@@]21C` were “inactive” and “inactive”.
Turning to `C#C[C@]1(O)CC[C@H]2[C@@H]3CCc4cc(O)ccc4[C@H]3CC[C@@]21C` [ETHINYL ESTRADIOL], the values for the Activity in test [1] and in test [2] were 20.5 mg and 22.5 mg, respectively.
For `C[C@]12CCC(O[C@H]3CC[C@H]4[C@@H]5CCc6cc(O)ccc6[C@H]5CC[C@]34C)C[C@@H]1CC[C@@H]1[C@@H]2CC[C@]2(C)[C@@H](O)CC[C@@H]12` (stereo not given in full), the outcome in test [1] and in test [2] was inactive.
For the compound `CC(=O)[C@@H]1CC[C@H]2[C@@H]3CC=C4C=C(O[C@H]5CC[C@H]6[C@@H]7CCc8cc(OC(=O)c9ccccc9)ccc8[C@H]7CC[C@]56C)CC[C@@H]4[C@H]3CC[C@]12C`, the result in test [1] and in test [2] was inactive.
On to `CC(=O)O[C@]1(C(C)=O)CC[C@H]2[C@@H]3CC(C)=C4C=C(O[C@H]5CC[C@H]6[C@@H]7CCc8cc(OC(=O)c9ccccc9)ccc8[C@H]7CC[C@]56C)CC[C@]4(C)[C@H]3CC[C@@]21C`, for which the Activity in test [1] is 21.9 mg; in test [2] it was 26.6 mg.
The matching figures for `C#C[C@]1(O)CC[C@H]2[C@@H]3CC=C4C=C(O[C@H]5CC[C@H]6[C@@H]7CCc8cc(OC(C)=O)ccc8[C@H]7CC[C@]56C)CC[C@@H]4[C@H]3CC[C@@]21C`: 32.7 mg and 39.2 mg.
Taken in the same sequence, the figures for `C[C@]12CC[C@@H]3c4ccc(OC(=O)c5ccccc5)cc4CC[C@H]3[C@@H]1CC[C@@H]2OC1=CC2=CC[C@@H]3[C@H](CC[C@]4(C)C(=O)CC[C@@H]34)[C@@]2(C)CC1` were 31.6 mg and 53 mg.
Consider `C[C@]12CC[C@H]3[C@@H](CC=C4C=C(O[C@H]5CC[C@H]6[C@@H]7CCc8cc(OC(=O)c9ccccc9)ccc8[C@H]7CC[C@]56C)CC[C@@H]43)[C@@H]1CC[C@@H]2OC(=O)c1ccccc1`, for which the results for the Activity in test [1] and in test [2] were 18.1 mg and 31.3 mg, respectively.
Taken in the same sequence, the figures for `C[C@]12CCC(O[C@H]3CC[C@H]4[C@@H]5CCc6cc(O)ccc6[C@H]5CC[C@]34C)C[C@H]1CC[C@@H]1[C@@H]2CC[C@]2(C)[C@@H](O)CC[C@@H]12` (stereo not given in full) were “inactive” and “inactive”.
On to `C[C@]12CC[C@@H]3c4ccc(O)cc4CC[C@H]3[C@@H]1CC[C@@H]2OC1=CC2=CC[C@H]3[C@@H]4CC[C@H](O)[C@@]4(C)CC[C@@H]3[C@@]2(C)CC1`, for which the Activity is given as 36.8 mg in test [1] and 50.2 mg in test [2].
For the compound `C#C[C@]1(OC(C)=O)CC[C@H]2[C@@H]3CC=C4C=C(O[C@H]5CC[C@H]6[C@@H]7CCc8ccccc8[C@H]7CC[C@]56C)CC[C@@H]4[C@H]3CC[C@@]21C`, the result in test [1] and in test [2] was inactive.
As to `C#C[C@]1(OC(=O)CCCCCC)CC[C@H]2[C@@H]3CC=C4C=C(O[C@H]5CC[C@H]6[C@@H]7CCc8cc(OC(=O)C(C)C)ccc8[C@H]7CC[C@]56C)CC[C@@H]4[C@H]3CC[C@@]21C`, the Activity turned out to be 30.4 mg in test [1] and 37.2 mg in test [2].
On to `C#C[C@@]1(OC(C)=O)CC[C@H]2[C@@H]3CC=C4C=C(O[C@H]5CC[C@H]6[C@@H]7CCc8cc(OC(=O)c9ccccc9)ccc8[C@H]7CC[C@]56C)CC[C@@H]4[C@H]3CC[C@@]21C`, for which the outcome in test [1] and in test [2] was inactive.
Consider `C[C@]12CC[C@@H]3c4ccc(OC5CCCC5)cc4CC[C@H]3[C@@H]1CC[C@@H]2OC1=CC2=CC[C@@H]3[C@H](CC[C@]4(C)[C@@H](O)CC[C@@H]34)[C@H]2CC1`, for which the Activity in test [1] amounted to 27.1 mg; in test [2], 35.8 mg.
Taken in the same sequence, the figures for `C#C[C@]1(OC(C)=O)CC[C@H]2[C@@H]3CC=C4C=C(O[C@H]5CC[C@H]6[C@@H]7CCc8cc(OC(C)OCC)ccc8[C@H]7CC[C@]56C)CC[C@@H]4[C@H]3CC[C@@]21C` (stereo not given in full) were 19.3 mg and 30.3 mg.
Taken in the same sequence, the figures for `C[C@]12CC[C@@H]3c4ccc(OC(=O)c5ccccc5)cc4CC[C@H]3[C@@H]1CC[C@@H]2OC1=CC2=CC[C@@H]3[C@H](CC[C@]4(C)C(=O)CC[C@@H]34)[C@H]2CC1` were 43.7 mg and 59.8 mg.
The matching figures for `CC(=O)[C@H]1CC[C@H]2[C@@H]3CC=C4C=C(O[C@H]5CC[C@H]6[C@@H]7CCc8cc(OC(=O)c9ccccc9)ccc8[C@H]7CC[C@]56C)CC[C@@H]4[C@H]3CC[C@]12C`: 28.5 mg and 29.1 mg.
On to `C[C@]12CC[C@@H]3c4ccc(OC5CCCC5)cc4CC[C@H]3[C@@H]1CC[C@@H]2OC1=CC2=CC[C@@H]3[C@H](CC[C@]4(C)C(=O)CC[C@@H]34)[C@H]2CC1`, for which the Activity was found to be 26.2 mg in test [1] and 29.1 mg in test [2].
On to `C#C[C@@]1(O)CC[C@H]2[C@@H]3CC=C4C=C(O[C@H]5CC[C@H]6[C@@H]7CCc8cc(O)ccc8[C@H]7CC[C@]56C)CC[C@@H]4[C@H]3CC[C@@]21C`, for which the result in test [1] and in test [2] was inactive.
As to `CC(=O)O[C@]1(C(C)=O)CC[C@H]2[C@@H]3CC=C4C=C(O[C@H]5CC[C@H]6[C@@H]7CCc8cc(OC(=O)c9ccccc9)ccc8[C@H]7CC[C@]56C)CC[C@]4(C)[C@H]3CC[C@@]21C`, the Activity in test [1] turned out to be 23.3 mg; in test [2], 27.5 mg.
Taken in the same sequence, the figures for `C#C[C@]1(OC(C)=O)CC[C@H]2[C@@H]3CC=C4C=C(O[C@H]5CC[C@H]6[C@@H]7CCc8cc(OC(=O)c9ccccc9)ccc8[C@H]7CC[C@]56C)CC[C@@H]4[C@H]3CC[C@@]21C` were 21.4 mg and 25.6 mg.
The matching figures for `C#C[C@]1(OC(=O)CCCCCC)CC[C@H]2[C@@H]3CC=C4C=C(O[C@H]5CC[C@H]6[C@@H]7CCc8cc(OC9CCCC9)ccc8[C@H]7CC[C@]56C)CC[C@@H]4[C@H]3CC[C@@]21C`: 15.2 mg and 19.8 mg.
Taken in the same sequence, the figures for `CC(=O)O[C@H]1CC[C@H]2[C@@H]3CC=C4C=C(O[C@H]5CC[C@H]6[C@@H]7CCc8cc(OC(=O)c9ccccc9)ccc8[C@H]7CC[C@]56C)CC[C@@H]4[C@H]3CC[C@]12C` were 31.6 mg and 48 mg.
Consider `C#C[C@]1(OC(C)=O)CC[C@H]2[C@@H]3CC=C4C=C(O[C@H]5CC[C@H]6[C@@H]7CCc8cc(OC9CCCC9)ccc8[C@H]7CC[C@]56C)CC[C@@H]4[C@H]3CC[C@@]21C`, for which, in test [2], the Activity is listed as 17.9 mg.
